Test results reported in ChEMBL document CHEMBL3769336, “Discovery of a Chemical Tool Inhibitor Targeting the Bromodomains of TRIM24 and BRPF” (J Med Chem, 2016).

Assays:
[1] = target: T1, Bromodomain-containing protein 1 (Homo sapiens, UniProt O95696); assay: Inhibition of BRPF2 BRD1 (unknown origin) by Alpha Screen assay
T1 sequence (O95696 whole entry): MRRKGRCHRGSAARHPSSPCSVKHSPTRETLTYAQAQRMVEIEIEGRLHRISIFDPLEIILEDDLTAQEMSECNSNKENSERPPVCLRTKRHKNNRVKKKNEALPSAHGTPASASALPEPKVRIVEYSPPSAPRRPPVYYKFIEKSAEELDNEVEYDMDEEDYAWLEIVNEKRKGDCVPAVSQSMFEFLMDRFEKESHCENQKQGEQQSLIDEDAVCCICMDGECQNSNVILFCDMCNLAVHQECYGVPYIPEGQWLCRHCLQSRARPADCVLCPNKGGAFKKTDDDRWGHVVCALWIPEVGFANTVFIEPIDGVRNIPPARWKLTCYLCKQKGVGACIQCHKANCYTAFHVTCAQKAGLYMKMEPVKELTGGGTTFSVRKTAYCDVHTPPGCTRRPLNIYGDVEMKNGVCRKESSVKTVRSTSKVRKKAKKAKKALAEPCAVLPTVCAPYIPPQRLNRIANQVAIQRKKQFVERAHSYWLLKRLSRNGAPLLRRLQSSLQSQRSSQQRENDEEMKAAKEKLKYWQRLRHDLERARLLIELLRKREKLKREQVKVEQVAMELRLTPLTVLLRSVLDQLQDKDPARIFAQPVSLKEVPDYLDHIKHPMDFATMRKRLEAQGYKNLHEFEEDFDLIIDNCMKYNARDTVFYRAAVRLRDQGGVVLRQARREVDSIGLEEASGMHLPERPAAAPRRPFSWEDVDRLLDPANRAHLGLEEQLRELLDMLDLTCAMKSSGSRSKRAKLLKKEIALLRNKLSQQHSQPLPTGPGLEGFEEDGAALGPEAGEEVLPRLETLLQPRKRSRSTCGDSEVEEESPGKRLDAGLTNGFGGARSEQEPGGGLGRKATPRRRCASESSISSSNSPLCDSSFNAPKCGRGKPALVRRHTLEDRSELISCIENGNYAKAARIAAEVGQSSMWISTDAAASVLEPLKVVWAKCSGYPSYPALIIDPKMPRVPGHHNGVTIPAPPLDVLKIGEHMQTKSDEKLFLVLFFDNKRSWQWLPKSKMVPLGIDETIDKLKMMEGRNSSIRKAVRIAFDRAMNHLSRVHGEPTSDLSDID

[2] = target: T2, Peregrin (Homo sapiens, UniProt P55201); assay: Binding affinity to BRPF1B (unknown origin) by isothermal titration calorimetry
T2 sequence (P55201 whole entry): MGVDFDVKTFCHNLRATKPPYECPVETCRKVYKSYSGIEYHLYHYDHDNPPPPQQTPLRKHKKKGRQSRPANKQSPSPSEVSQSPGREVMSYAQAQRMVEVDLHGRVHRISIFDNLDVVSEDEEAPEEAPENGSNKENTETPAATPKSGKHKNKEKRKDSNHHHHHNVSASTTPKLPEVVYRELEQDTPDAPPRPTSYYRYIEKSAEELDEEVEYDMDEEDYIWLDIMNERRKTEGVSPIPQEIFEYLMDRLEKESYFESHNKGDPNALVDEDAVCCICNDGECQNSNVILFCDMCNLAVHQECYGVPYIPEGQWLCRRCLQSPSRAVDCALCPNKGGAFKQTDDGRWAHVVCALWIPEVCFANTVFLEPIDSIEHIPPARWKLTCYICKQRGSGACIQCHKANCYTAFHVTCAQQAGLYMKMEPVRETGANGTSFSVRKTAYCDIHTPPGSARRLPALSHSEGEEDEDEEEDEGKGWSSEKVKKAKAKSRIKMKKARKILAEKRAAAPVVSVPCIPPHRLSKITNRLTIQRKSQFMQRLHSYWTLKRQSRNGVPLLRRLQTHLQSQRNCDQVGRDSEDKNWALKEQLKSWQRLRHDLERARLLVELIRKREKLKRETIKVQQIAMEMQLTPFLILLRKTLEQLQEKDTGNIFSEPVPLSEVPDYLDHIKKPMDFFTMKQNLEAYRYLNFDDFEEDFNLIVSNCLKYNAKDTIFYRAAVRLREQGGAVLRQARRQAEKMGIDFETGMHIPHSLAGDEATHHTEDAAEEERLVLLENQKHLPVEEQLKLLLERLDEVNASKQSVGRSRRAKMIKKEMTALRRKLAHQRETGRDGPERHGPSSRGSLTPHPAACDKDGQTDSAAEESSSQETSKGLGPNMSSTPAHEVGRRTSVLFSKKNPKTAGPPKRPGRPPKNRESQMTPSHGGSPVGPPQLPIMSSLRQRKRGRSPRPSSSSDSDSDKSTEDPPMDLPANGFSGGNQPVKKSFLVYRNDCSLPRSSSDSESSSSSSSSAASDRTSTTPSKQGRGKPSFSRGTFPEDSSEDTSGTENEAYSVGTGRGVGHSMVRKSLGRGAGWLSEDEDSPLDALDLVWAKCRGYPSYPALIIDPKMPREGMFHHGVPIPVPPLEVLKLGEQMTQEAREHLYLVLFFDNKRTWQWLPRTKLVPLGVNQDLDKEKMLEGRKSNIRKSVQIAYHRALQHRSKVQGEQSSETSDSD

IC50 [1]: 1750 nM
Kd [2]: 137 nM
SMILES: COc1ccc(Oc2cc3c(cc2NS(=O)(=O)c2ccc(OC)c(OC)c2)n(C)c(=O)n3C)cc1
